According to PubChem BioAssay (NCI):
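Test compounds were applied to cells in 96-well plates for 48 hours at 5 doses. The concentration for full growth arrest is given as TGI.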

Experiments:
Experiment in all cases: NCI anticancer screen, dose series, 48 h
U251 CNS = test system: U251 CNS
HL-60(TB) leukemia = test system: HL-60(TB) leukemia
T-47D breast = test system: T-47D breast
SW-620 colon = test system: SW-620 colon
IGROV1 ovarian = test system: IGROV1 ovarian
SNB-19 CNS = test system: SNB-19 CNS
HOP-62 NSCLC = test system: HOP-62 NSCLC
SNB-75 CNS = test system: SNB-75 CNS
TK-10 renal = test system: TK-10 renal
CCRF-CEM leukemia = test system: CCRF-CEM leukemia

SMILES | TGI (U251 CNS) [µM] | TGI (HL-60(TB) leukemia) [µM] | TGI (T-47D breast) [µM] | TGI (SW-620 colon) [µM] | TGI (IGROV1 ovarian) [µM] | TGI (SNB-19 CNS) [µM] | TGI (HOP-62 NSCLC) [µM] | TGI (SNB-75 CNS) [µM] | TGI (TK-10 renal) [µM] | TGI (CCRF-CEM leukemia) [µM]
Cc1nc2ccc(NCCN(C)C)c3c(=O)c4ccccc4n1c23 | 16.2 | > 47.5 | 39.7 | 9.15 | 16.6 | 47.8 | 19.1 | 17.8 | 38.5 | 47.5
CC(=O)O[C@H]1[C@@H](N2CCOCC2)C[C@H]2[C@@H]3CC=C4C[C@@H](N5CCCC5)CC[C@]4(C)[C@H]3CC[C@@]21C | > 100 | > 100 | > 100 | > 100 | > 100 | > 100 | > 100 | > 100 | > 100 | > 100
CC1(C)N=C(C(N)=O)c2[nH]cnc2N1 | > 100 | > 100 | > 100 | > 100 | > 100 | > 100 | > 100 | > 100 | > 100 | > 100
CC(=O)c1csc2c1C(=O)c1ccccc1C2=O | 13.9 | 19.5 | 50.8 | 5.4 | 6.42 | 5.06 | 4.36 | 3.11 | 4.99 | 4.01
O=c1cc(NNc2cccc3ccccc23)[nH]c(=O)[nH]1 | 28.3 | 7.99 | 29.6 | 40 | 29.2 | 29 | 30.9 | 31.4 | 33.8 | 81.9
CCCOC(=O)c1cc(O)c(O)c(O)c1 | > 100 | > 100 | > 100 | > 100 | > 100 | > 100 | > 100 | > 100 | > 100 | > 100
COc1ccc(-c2nc3ccccc3c(=O)[nH]2)cc1 | > 100 | > 100 | > 100 | > 100 | > 100 | > 100 | > 100 | 84.9 | > 100 | > 100
O=c1c(-c2nc3ccccc3c3ccccc3c2=O)nc2ccccc2c2ccccc12 | 60.3 | 58.5 | > 100 | > 100 | > 100 | > 100 | > 100 | 94.9 | > 100 | 86.8
Cc1nn2c(=O)c([N+](=O)[O-])c(/C=C/c3ccc(F)cc3)nc2s1 | 14.6 | 18.1 | 19.3 | 19.3 | 22.6 | 23.2 | 22.9 | 31.3 | 20.7 | 23.5
